We go through ten molecules from ChEMBL document CHEMBL1201862, “PubChem BioAssay data set” (2004).

Test systems include NCI-H460; MDA-N; SNB-75; DU-145; SNB-19; OVCAR-5; BT-549; OVCAR-3; A549; LOX IMVI; KM12; NCI/ADR-RES; IGROV-1; SR; HL-60; U-251; K562; MOLT-4; PC-3; SK-MEL-28.
Common to all, as to test: inhibition of tumour cell growth, NCI panel, 48 h

The structures appear in SMILES notation.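 Cells were grown in 96-well plates and exposed to each compound for 48 hours at five concentrations; endpoints were interpolated linearly between bracketing concentrations, or set to the highest concentration if not reached. GI50 = concentration required for 50% inhibition of growth.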 The source made the active and inactive calls. No stated cut-off is given here; in the data, active = GI50 up to about 1.1 µM and inactive = higher.

With `CC1(C)Oc2ccc3ccc(=O)oc3c2C(O)C1O` (stereo not given), the GI50 is 40 µM (inactive) with NCI-H460; 35.1 µM (inactive) in the assay with MDA-N; 38.8 µM (inactive) in the assay on SNB-75; 55.8 µM (inactive) in the assay on DU-145; > 100 µM (inactive) in the assay with SNB-19; > 100 µM (inactive) in the assay with OVCAR-5. In addition, the GI50 in the assay with BT-549 was 22.5 µM (inactive); in the assay with OVCAR-3, 37.2 µM (inactive); with A549 it was 32.2 µM (inactive); in the assay on LOX IMVI, 29.5 µM (inactive); in the assay with KM12, 31.9 µM (inactive); with NCI/ADR-RES, 34 µM (inactive). Besides, the GI50 in the assay on IGROV-1 is 33.2 µM (inactive); in the assay with SR, 59.4 µM (inactive); in the assay on HL-60, 33.3 µM (inactive); in the assay on U-251 it was 38.3 µM (inactive); with K562, 37.6 µM (inactive); in the assay on MOLT-4, 21.7 µM (inactive). Further, the values for the GI50 with PC-3 and in the assay on SK-MEL-28 were 31.6 µM (inactive) and 37.5 µM (inactive), respectively.
As for `COC(=O)C1=C(C(=O)OC)SC(=C2c3ccsc3-c3sccc32)S1`, the GI50 with NCI-H460 is > 100 µM (inactive); in the assay on MDA-N, 70.3 µM (inactive); in the assay on SNB-75, 15.9 µM (inactive); in the assay on DU-145, > 100 µM (inactive); in the assay on SNB-19, 67.6 µM (inactive); with OVCAR-5, > 100 µM (inactive). Besides, the GI50 was 29.4 µM (inactive) with BT-549; 31 µM (inactive) in the assay with OVCAR-3; 37.2 µM (inactive) with A549; > 100 µM (inactive) with LOX IMVI; 40.3 µM (inactive) with KM12; 62.8 µM (inactive) in the assay on NCI/ADR-RES. For the same molecule, the GI50 with IGROV-1 is 40.6 µM (inactive); with SR, 34 µM (inactive); in the assay with HL-60, 24 µM (inactive); with U-251 it was 28.3 µM (inactive); in the assay with K562, 36.2 µM (inactive); in the assay on MOLT-4, 39.4 µM (inactive). In addition, the GI50 is 47 µM (inactive) in the assay with PC-3 and 24.3 µM (inactive) in the assay with SK-MEL-28.
As to `Nc1cccc(C2CCCc3c2[nH]c2ccccc32)c1` (stereo not given), the GI50 in the assay with NCI-H460 was 19.5 µM (inactive); with MDA-N it was 17.5 µM (inactive); with SNB-75, 11.9 µM (inactive); in the assay with DU-145, 27 µM (inactive); in the assay on SNB-19, 12 µM (inactive); with OVCAR-5, 16.3 µM (inactive). For the same molecule, the GI50 in the assay on BT-549 was 18.4 µM (inactive); with OVCAR-3 it was 26.7 µM (inactive); in the assay with A549 it was 17.5 µM (inactive); in the assay on LOX IMVI, 12.4 µM (inactive); with KM12, 17.5 µM (inactive); in the assay on NCI/ADR-RES it was 17.7 µM (inactive). For the same molecule, the GI50 in the assay with IGROV-1 was 17.3 µM (inactive); with SR it was 9.08 µM (inactive); in the assay with HL-60, 19.5 µM (inactive); in the assay with U-251 it was 14.6 µM (inactive); with K562 it was 13.6 µM (inactive); with MOLT-4 it was 20.6 µM (inactive). Also, the GI50 is 16.1 µM (inactive) in the assay on PC-3 and 26.5 µM (inactive) in the assay with SK-MEL-28.
Take `CCOc1cc(NC(C)=O)ccc1C(=O)NNC(=O)c1ccccc1OC(C)=O`: the GI50 in the assay with NCI-H460 is 4.04 µM (inactive); in the assay on MDA-N, 12.5 µM (inactive); with SNB-75 it was 8.05 µM (inactive); in the assay with DU-145 it was 8.28 µM (inactive); with SNB-19 it was 21.9 µM (inactive); in the assay with OVCAR-5, 10.2 µM (inactive). The GI50 in the assay on BT-549 was 19.5 µM (inactive); in the assay with OVCAR-3 it was 3.24 µM (inactive); with A549 it was 6.76 µM (inactive); in the assay on LOX IMVI, 5.45 µM (inactive); in the assay with KM12 it was 7.08 µM (inactive); in the assay on NCI/ADR-RES, 17.7 µM (inactive). Also, the GI50 was 3.03 µM (inactive) with IGROV-1; 1.05 µM (active) with SR; 4.28 µM (inactive) in the assay with HL-60; 4.69 µM (inactive) with U-251; 3.02 µM (inactive) in the assay on K562; 0.995 µM (active) in the assay on MOLT-4. Moreover, the values for the GI50 with PC-3 and with SK-MEL-28 were 11.1 µM (inactive) and 21.5 µM (inactive), respectively.
Regarding `O=C(COc1ccc(OCC(=O)N2C(=O)CN(c3ccccc3)C2=S)cc1)N1C(=O)CN(c2ccccc2)C1=S`, the GI50 in the assay with NCI-H460 is > 57.7 µM (inactive); in the assay with MDA-N it was > 63.1 µM (inactive); with SNB-75, > 25 µM (inactive); with DU-145, > 61 µM (inactive); in the assay with SNB-19, > 48.4 µM (inactive); with OVCAR-5, > 50.9 µM (inactive). The GI50 in the assay with BT-549 is > 61.4 µM (inactive); in the assay with OVCAR-3 it was 49.3 µM (inactive); with A549, > 56.1 µM (inactive); with LOX IMVI it was > 25 µM (inactive); with KM12 it was > 51.5 µM (inactive); with NCI/ADR-RES it was > 55.7 µM (inactive). Besides, the GI50 in the assay on IGROV-1 was > 25 µM (inactive); in the assay with SR it was > 25 µM (inactive); in the assay with HL-60 it was > 100 µM (inactive); in the assay on U-251 it was > 51.6 µM (inactive); with K562 it was > 100 µM (inactive); with MOLT-4 it was > 25 µM (inactive). Moreover, the GI50 in the assay on PC-3 is > 25 µM (inactive); in the assay with SK-MEL-28 it was > 100 µM (inactive).
Take `CN(C)Cc1cc(/N=N/c2ccc(Cl)cc2)ccc1O`: the GI50 was 13.8 µM (inactive) in the assay with NCI-H460; 19.5 µM (inactive) in the assay with MDA-N; 14.9 µM (inactive) with SNB-75; 25.1 µM (inactive) in the assay with DU-145; 17.3 µM (inactive) in the assay on SNB-19; 12.1 µM (inactive) in the assay on OVCAR-5. For the same molecule, the GI50 is 10.7 µM (inactive) with BT-549; 11.5 µM (inactive) in the assay on OVCAR-3; 16 µM (inactive) with A549; 11.4 µM (inactive) in the assay with LOX IMVI; 17.3 µM (inactive) with KM12; 17.7 µM (inactive) in the assay with NCI/ADR-RES. The GI50 in the assay with IGROV-1 is 15.8 µM (inactive); in the assay with SR it was 16.4 µM (inactive); in the assay on HL-60, 13.5 µM (inactive); with U-251, 17.4 µM (inactive); with K562, 17.3 µM (inactive); in the assay on MOLT-4, 15.2 µM (inactive). The GI50 is 14.7 µM (inactive) in the assay on PC-3 and 16 µM (inactive) with SK-MEL-28.
Take `O=C1CC(Nc2ccccc2)c2c(Cl)sc(Cl)c21` (stereo not given): the GI50 with NCI-H460 is 6.37 µM (inactive); with MDA-N it was 1.65 µM (inactive); with SNB-75, 2.31 µM (inactive); with DU-145, 1.6 µM (inactive); in the assay with SNB-19, 5.19 µM (inactive); with OVCAR-5, 2.34 µM (inactive). Besides, the GI50 was 2.22 µM (inactive) in the assay with BT-549; 1.79 µM (inactive) in the assay with OVCAR-3; 2.05 µM (inactive) with A549; 0.39 µM (active) with LOX IMVI; 0.483 µM (active) in the assay with KM12; 2.42 µM (inactive) in the assay with NCI/ADR-RES. Moreover, the GI50 in the assay on IGROV-1 is 1.61 µM (inactive); in the assay on SR, 0.52 µM (active); in the assay with HL-60, 0.199 µM (active); with U-251, 1.68 µM (inactive); in the assay on K562, 1.12 µM (active); in the assay with MOLT-4 it was 0.484 µM (active). Besides, the values for the GI50 in the assay with PC-3 and in the assay with SK-MEL-28 were 1.49 µM (inactive) and 1.86 µM (inactive), respectively.
As to `CCN1/C(=C/c2ccc3ccccc3[n+]2CC)C=Cc2ccccc21`, the GI50 is 0.333 µM (active) in the assay with NCI-H460; 0.39 µM (active) with MDA-N; 0.35 µM (active) in the assay on SNB-75; 0.867 µM (active) with DU-145; 0.541 µM (active) in the assay on SNB-19; 5.37 µM (inactive) in the assay with OVCAR-5. For the same molecule, the GI50 in the assay with BT-549 was 1.69 µM (inactive); in the assay on OVCAR-3 it was 0.269 µM (active); in the assay with A549, 0.764 µM (active); in the assay on LOX IMVI, 0.561 µM (active); with KM12 it was 0.149 µM (active); with NCI/ADR-RES it was 21.9 µM (inactive). The GI50 in the assay with IGROV-1 is 2.51 µM (inactive); with SR, 0.164 µM (active); in the assay on HL-60, 1.09 µM (active); in the assay with U-251, 0.131 µM (active); with K562, 0.262 µM (active); with MOLT-4, 0.641 µM (active). Further, the values for the GI50 in the assay with PC-3 and in the assay with SK-MEL-28 were 0.445 µM (active) and 1.15 µM (inactive), respectively.
Take `Cc1oc2c(cc(O)c3cc(O)ccc32)c2cccc1-2`: the GI50 in the assay with NCI-H460, in the assay on MDA-N, in the assay on SNB-75, in the assay on DU-145, in the assay with SNB-19 and in the assay on OVCAR-5 was > 100 µM (inactive) in each case. Further, the GI50 with BT-549 is 0.697 µM (active); in the assay with OVCAR-3 it was > 100 µM (inactive); in the assay with A549, > 100 µM (inactive); in the assay with LOX IMVI, > 100 µM (inactive); in the assay with KM12 it was > 100 µM (inactive); with NCI/ADR-RES, > 100 µM (inactive). The GI50 with IGROV-1 is > 100 µM (inactive); in the assay on SR, 37 µM (inactive); with HL-60, > 100 µM (inactive); in the assay on U-251, > 100 µM (inactive); with K562, > 100 µM (inactive); in the assay with MOLT-4, > 100 µM (inactive). The GI50 in the assay on PC-3 and in the assay on SK-MEL-28 was > 100 µM (inactive) in each case.
For `NC(C(F)(F)F)(C(F)(F)F)P(=O)(c1ccccc1)c1ccccc1`, the GI50 in the assay on NCI-H460, in the assay on MDA-N, with SNB-75, in the assay on DU-145, in the assay on SNB-19 and in the assay with OVCAR-5 was > 100 µM (inactive) in each case. Besides, the GI50 in the assay with BT-549, with OVCAR-3, in the assay with A549, with LOX IMVI, with KM12 and in the assay on NCI/ADR-RES was > 100 µM (inactive) throughout. Also, the GI50 in the assay on IGROV-1, with SR, with HL-60, in the assay with U-251, in the assay on K562 and with MOLT-4 was > 100 µM (inactive) in each case. The GI50 in the assay on PC-3 and in the assay with SK-MEL-28 was > 100 µM (inactive) throughout.
